Measurements: ChEMBL document CHEMBL1201862, “PubChem BioAssay data set” (2004)
The source made the active and inactive calls.

What was measured:
Cytochrome P450 3A4 [1] = molecular target: T1, Cytochrome P450 3A4 (Homo sapiens, UniProt P08684); settings: Potency
[2] = THP-1 cell cytotoxicity, dose response, cytotoxicity control for non-replicating M. tuberculosis project (AID 489025); format: functional
[3] = Vero E6 cell cytotoxicity, dose response, cytotoxicity control for non-replicating M. tuberculosis project, secondary assay (AID 492998); format: functional, VeroE6; settings: Vero C1008
[4] = microbe, parasite or virus in culture; format: functional; settings: Mycobacterium tuberculosis
cells = format: functional
[5] = alpha-synuclein stem-loop luciferase translation blockers – H4 neuroglioma cells, luminescence, confirmation (AID 1988); format: functional, cell-based
[6] = Luminescence Cell-Based Dose Response HTS to Identify Inhibitors of 5'UTR Stem-Loop Driven Prion Protein mRNA Translation in H4 Neuroglioblastoma Cells. [Related pubchem assays: 1827 (Project Summary), 1813 (Primary HTS)]; format: functional
[7] = HEK-293T viability loss after treatment – luminescence, T-cell screen hits, cytotoxicity control for TCR NF-kB inhibitor project, dose response (AID 489026); format: functional, cell-based;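 further: cells exposed to compound about 14 hours before the viability readout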
[8] = luciferase reporter signal suppression in cells – H4 neuroglioma cells, luminescence, dose response (AID 1990); format: functional, cell-based
P388/ADR = assay: cells; format: functional; settings: Mus musculus
P388 = assay: cells; format: functional; settings: Mus musculus
SN12K1 = assay: cells; format: functional; settings: Homo sapiens
[9] = molecular target: T2, Heat shock factor protein 1 (Mus musculus, UniProt P38532); assay: decrease of HSF1-responsive luciferase luminescence – cell-based, NIH3T3, dose retest, confirmation (AID 2382); format: functional;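 further: NIH3T3 fibroblasts with HSF1-driven luciferase reporter stressed by proteasome inhibitor MG132; luminescence from HSF1-driven luciferase expression after 8 hours of MG132 stress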
T2 sequence (P38532 whole entry): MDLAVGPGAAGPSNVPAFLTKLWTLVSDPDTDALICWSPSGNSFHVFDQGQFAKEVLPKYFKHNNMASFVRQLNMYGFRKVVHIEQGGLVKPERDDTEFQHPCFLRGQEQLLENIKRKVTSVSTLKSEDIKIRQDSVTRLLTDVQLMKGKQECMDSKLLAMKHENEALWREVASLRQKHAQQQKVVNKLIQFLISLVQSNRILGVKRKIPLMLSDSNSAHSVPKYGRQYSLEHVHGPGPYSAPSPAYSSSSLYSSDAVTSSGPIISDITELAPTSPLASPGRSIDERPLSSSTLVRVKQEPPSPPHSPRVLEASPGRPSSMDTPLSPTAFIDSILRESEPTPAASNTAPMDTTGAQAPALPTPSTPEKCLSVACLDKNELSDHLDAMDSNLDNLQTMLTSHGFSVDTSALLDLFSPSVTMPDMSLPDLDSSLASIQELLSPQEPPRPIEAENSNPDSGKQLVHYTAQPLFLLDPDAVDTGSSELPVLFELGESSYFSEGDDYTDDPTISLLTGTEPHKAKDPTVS

Cytochrome P450 2C9 = Cytochrome P450 2C9 (Homo sapiens, UniProt P11712)
Cytochrome P450 2C9, sequence (P11712 whole entry): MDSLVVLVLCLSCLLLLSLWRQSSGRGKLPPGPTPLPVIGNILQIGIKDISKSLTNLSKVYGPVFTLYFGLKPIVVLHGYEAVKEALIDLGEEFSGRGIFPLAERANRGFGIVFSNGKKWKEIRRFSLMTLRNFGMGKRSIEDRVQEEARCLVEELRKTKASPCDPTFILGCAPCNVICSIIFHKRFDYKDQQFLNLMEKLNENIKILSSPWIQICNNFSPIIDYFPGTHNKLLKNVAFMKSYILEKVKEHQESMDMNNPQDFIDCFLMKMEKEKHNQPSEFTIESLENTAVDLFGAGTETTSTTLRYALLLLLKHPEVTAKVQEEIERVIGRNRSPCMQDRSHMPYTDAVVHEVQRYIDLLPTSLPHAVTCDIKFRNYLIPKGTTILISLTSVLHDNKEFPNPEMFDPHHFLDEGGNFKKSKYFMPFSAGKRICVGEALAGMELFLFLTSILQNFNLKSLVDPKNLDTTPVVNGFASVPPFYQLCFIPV

Cytochrome P450 3A4 [10] = molecular target: T1, Cytochrome P450 3A4
Cytochrome P450 2C19 = Cytochrome P450 2C19 (Homo sapiens, UniProt P33261); assay: Cytochrome panel assay with activity outcomes. Panel member name: p450-cyp2c19 Compounds with AC50 equal or less than 10 uM are considered active; format: functional; settings: read-out: AC50
Cytochrome P450 2C19, sequence (P33261 whole entry): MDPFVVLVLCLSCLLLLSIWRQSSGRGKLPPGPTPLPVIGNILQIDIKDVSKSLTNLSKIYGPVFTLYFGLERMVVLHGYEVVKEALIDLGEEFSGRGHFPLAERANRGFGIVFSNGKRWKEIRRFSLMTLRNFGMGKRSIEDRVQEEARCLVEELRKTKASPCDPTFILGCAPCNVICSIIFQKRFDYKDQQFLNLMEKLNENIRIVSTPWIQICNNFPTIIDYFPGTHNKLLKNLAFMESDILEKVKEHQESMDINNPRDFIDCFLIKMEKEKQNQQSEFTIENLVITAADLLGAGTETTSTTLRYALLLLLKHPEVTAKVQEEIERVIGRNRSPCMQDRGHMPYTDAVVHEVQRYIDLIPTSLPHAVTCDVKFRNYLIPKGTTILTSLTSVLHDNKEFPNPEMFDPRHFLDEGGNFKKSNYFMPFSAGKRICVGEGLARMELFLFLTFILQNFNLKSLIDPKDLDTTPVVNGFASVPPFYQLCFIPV

Escherichia coli = assay: microbe, parasite or virus in culture
Protein Wnt-3a = Protein Wnt-3a (Mus musculus, UniProt P27467); assay: antagonism of Wnt3a pathway luciferase reporter – Wnt-LIGHT cells, luminescence, selectivity assay for Gli-SUFU antagonist project, dose response (AID 651570); format: functional; settings: read-out: IC50_Mean;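 further: Wnt-LIGHT reporter cells stimulated with conditioned medium from Wnt3a-producing cells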
Protein Wnt-3a, sequence (P27467 whole entry): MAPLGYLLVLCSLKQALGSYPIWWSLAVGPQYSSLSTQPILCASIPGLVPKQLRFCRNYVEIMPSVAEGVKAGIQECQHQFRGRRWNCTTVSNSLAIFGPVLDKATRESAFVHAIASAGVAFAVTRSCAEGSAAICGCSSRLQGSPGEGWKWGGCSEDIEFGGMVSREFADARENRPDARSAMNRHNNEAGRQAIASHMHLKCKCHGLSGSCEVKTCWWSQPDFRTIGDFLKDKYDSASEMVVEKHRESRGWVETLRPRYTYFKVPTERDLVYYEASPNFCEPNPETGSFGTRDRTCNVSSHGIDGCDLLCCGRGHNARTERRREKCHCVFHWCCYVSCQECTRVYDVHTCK

T1 sequence (P08684 whole entry): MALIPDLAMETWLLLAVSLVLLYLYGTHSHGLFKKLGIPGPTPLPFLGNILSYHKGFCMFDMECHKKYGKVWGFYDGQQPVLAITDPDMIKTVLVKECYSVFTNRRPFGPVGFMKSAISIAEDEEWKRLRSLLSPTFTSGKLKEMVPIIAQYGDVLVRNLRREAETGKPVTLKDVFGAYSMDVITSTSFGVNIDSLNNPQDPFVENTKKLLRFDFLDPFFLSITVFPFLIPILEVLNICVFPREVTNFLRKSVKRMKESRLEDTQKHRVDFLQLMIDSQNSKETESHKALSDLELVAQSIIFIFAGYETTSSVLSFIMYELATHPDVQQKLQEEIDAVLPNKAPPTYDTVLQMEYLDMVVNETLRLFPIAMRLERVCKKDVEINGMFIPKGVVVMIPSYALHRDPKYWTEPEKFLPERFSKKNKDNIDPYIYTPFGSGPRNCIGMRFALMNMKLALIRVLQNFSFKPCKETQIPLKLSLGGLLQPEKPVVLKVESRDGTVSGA

CC(=O)OC1CCC23CC1(C)CCC2C(C)(C)CC3OC(C)=O (centres undefined) [CLOVANEDIOL DIACETATE]
AC50 (Cytochrome P450 3A4 [1]): 15.8 µM (inconclusive)

Nc1ccc(Cl)cc1N
AC50 (Cytochrome P450 3A4 [1]): 7.94 µM (inconclusive)

CCOc1ccc(C(=O)CCN2CCCCCC2)cc1
CC50 [2]: > 40 µM (active) | CC50 [3]: > 20 µM (active) | CC50 [4]: > 40 µM (active) | IC50 (cells): 17.2 µM (active)

Clc1ccc(CSc2nncn2-c2ccc3c(c2)OCCO3)cc1
EC50 [5]: > 120 µM (not active) | EC50 [6]: > 120 µM (not active) | IC50 [7]: > 80 µM (inactive) | EC50 [8]: > 120 µM (not active)

O=C(O)c1ccccc1/N=C/c1ccc(N(CCCl)CCCl)cc1
GI50 (P388/ADR): 24.8 µM (inactive) | GI50 (P388): 19.2 µM (inactive) | GI50 (SN12K1): > 100 µM (inactive)

CCC(C)(NC(=O)c1ccccn1)C(=O)NC1CCCCC1 (centres undefined)
EC50 [9]: > 195 µM (not active) | AC50 (Cytochrome P450 2C9): 17.8 µM (inconclusive) | AC50 (Cytochrome P450 3A4 [10]): inconclusive | AC50 (Cytochrome P450 2C19): 10 µM (inconclusive)

O=C(c1ccco1)N1CCC2(CC1)CN(c1ccccc1)C2
AC50 (Cytochrome P450 2C9): 25.1 µM (inconclusive) | AC50 (Cytochrome P450 3A4 [10]): inconclusive

Cn1c(=O)c(-c2cc(F)cc(F)c2)nc2cnc(Oc3ccccc3)nc21
AC50 (Cytochrome P450 2C9): 20 µM (inconclusive) | AC50 (Cytochrome P450 3A4 [10]): inconclusive

C[C@@H]1CN(c2c(F)c(F)c3c(=O)c(C(=O)O)cn(C4CC4)c3c2F)C[C@H](C)N1 [ORBIFLOXACIN]
AC50 (Escherichia coli): 0.657 µM (active)

CCCCC/C=C\C/C=C\CCCCCCCC(=O)O [LINOLEIC ACID]
AC50 (Cytochrome P450 3A4 [1]): 31.6 µM (inconclusive)

O=C(Nc1cccc(C(F)(F)F)c1)C1CCN(S(=O)(=O)c2ccc(N3CCCC3=O)cc2)CC1
IC50 (Protein Wnt-3a): 6.98 µM (active)

O=C(CN1C(=O)NC2(CCCCC2)C1=O)NCc1cccs1
AC50 (Escherichia coli): 34.2 µM (active)

O=C(CCNc1ccc(F)cc1)c1ccco1
CC50 [2]: > 40 µM (active) | CC50 [3]: 17.9 µM (active) | IC50 (cells): 13.6 µM (active)

C#CCN1CCN(C(=S)N/N=C(\C)c2ccccn2)CC1
GI50 (P388/ADR): < 0.01 µM (active) | GI50 (P388): < 0.01 µM (active) | GI50 (SN12K1): 0.01 µM (active)

NN
GI50 (P388/ADR): 68.5 µM (inactive) | GI50 (P388): 105 µM (inactive) | GI50 (SN12K1): 96.8 µM (inactive)
